Measurements reported in paper PMC5657151 (Pediatric blood & cancer, 2017).
Entries after “also recorded” stand apart in the source; their conditions may differ. Read-outs that look alike come from different tables or passages of the source.

Legend:
[1] = set-up: species or system human; conditions: in vivo
[2] = assay type: in vivo, human; conditions: for AUC(0-t) / Cmax: median (range)
[3] = system: relapsed or refractory solid tumors; assay: Pediatric phase 1 trial: tumor response; assay type: in vivo, human
[4] = adults, PO bid, ref [6], [60]–[62], cited from earlier work

SMILES: O=C1NC(=O)[C@@H](c2cn3c4c(cccc24)CCC3)[C@@H]1c1c[nH]c2ccccc12 [Tivantinib]
- Anemia, maximum Gr. 1 (number of patients) ([1]; human): 4
- Grade 1 or 2 anemia (number) ([1]; human): 12
- Grade 1 or 2 fatigue (number) ([1]; human): 8
- Grade 1 or 2 hypoalbuminemia (number) ([1]; human): 4
- Grade 1 or 2 leukopenia (number) ([1]; human): 5
- Grade 1 or 2 lymphopenia (number) ([1]; human): 8
- Grade 1 or 2 nausea (number) ([1]; human): 5
- Grade 1 or 2 neutropenia (number) ([1]; human): 5
- Grade 1 or 2 thrombocytopenia (number) ([1]; human): 3
- Grade 1 or 2 vomiting (number) ([1]; human): 5
- Hemoglobin increased, maximum Gr. 1 (number of patients) ([1]; human): 1
- Lymphocyte count decreased, maximum Gr. 1 (number of patients) ([1]; human): 2
- Lymphocyte count decreased, maximum Gr. 2 (number of patients) ([1]; human): 2
- Lymphocyte count increased, maximum Gr. 2 (number of patients) ([1]; human): 1
- Neutrophil count decreased, maximum Gr. 2 (number of patients) ([1]; human): 2
- Platelet count decreased, maximum Gr. 1 (number of patients) ([1]; human): 2
- White blood cell decreased, maximum Gr. 1 (number of patients) ([1]; human): 3
- grade 3 anemia (number) ([1]; human): 1
- grade 3 lymphopenia (number) ([1]; human): 2
- recommended phase 2 dose (RP2D) ([1]; human): 240 mg/m^2/dose
- Anemia, maximum Gr. 1 (number of patients) ([1]; human, 1 cycle): 9
- Anemia, maximum Gr. 2 (number of patients) ([1]; human, 1 cycle): 3
- Anemia, maximum Gr. 3 (number of patients) ([1]; human, 1 cycle): 1
- Fatigue, maximum Gr. 1 (number of patients) ([1]; human, 1 cycle): 5
- Fatigue, maximum Gr. 2 (number of patients) ([1]; human, 1 cycle): 3
- Hypoalbuminemia, maximum Gr. 1 (number of patients) ([1]; human, 1 cycle): 2
- Hypoalbuminemia, maximum Gr. 2 (number of patients) ([1]; human, 1 cycle): 2
- Lymphocyte count decreased, maximum Gr. 1 (number of patients) ([1]; human, 1 cycle): 3
- Lymphocyte count decreased, maximum Gr. 2 (number of patients) ([1]; human, 1 cycle): 5
- Lymphocyte count decreased, maximum Gr. 3 (number of patients) ([1]; human, 1 cycle): 2
- Nausea, maximum Gr. 1 (number of patients) ([1]; human, 1 cycle): 4
- Nausea, maximum Gr. 2 (number of patients) ([1]; human, 1 cycle): 1
- Neutrophil count decreased, maximum Gr. 1 (number of patients) ([1]; human, 1 cycle): 3
- Neutrophil count decreased, maximum Gr. 2 (number of patients) ([1]; human, 1 cycle): 2
- Platelet count decreased, maximum Gr. 1 (number of patients) ([1]; human, 1 cycle): 3
- Vomiting, maximum Gr. 1 (number of patients) ([1]; human, 1 cycle): 4
- Vomiting, maximum Gr. 2 (number of patients) ([1]; human, 1 cycle): 1
- White blood cell decreased, maximum Gr. 1 (number of patients) ([1]; human, 1 cycle): 5
- White blood cell decreased, maximum Gr. 2 (number of patients) ([1]; human, 1 cycle): 2
- Sinus bradycardia [1]: not readily apparent
- tolerability [1]: well tolerated
- Tmax, median (range) ([2]; Powder sprinkled on food, 240 mg/m^2 (n=9), Day 1 Cycle 1): 2.0 (1.0–6.0) h
- inter-patient variability in Cmax and AUC0–8h ([2]; across all dose levels): 20 fold
- AUC(0-t) ([2]; human, plasma, oral, 170 mg/m2, AUC0–8h, Capsule, 170 mg/m^2 (n=6), Day 1 Cycle 1, with food): 3820 ng·h/mL
- Tmax ([2]; human, plasma, oral, 200 mg/m2): 4 h
- AUC(0-t) ([2]; human, plasma, oral, 200 mg/m2, AUC0–8h, Capsule, 200 mg/m^2 (n=7), Day 1 Cycle 1, with food): 9470 ng·h/mL
- Cmax ([2]; human, plasma, oral, 200 mg/m2, Cmax, Capsule, 200 mg/m^2 (n=7), Day 1 Cycle 1, with food): 2180 ng/mL
- Tmax ([2]; human, plasma, oral, 240 mg/m2): 2 h
- AUC(0-t) ([2]; human, plasma, oral, 240 mg/m2, AUC0–8h, Capsule, 240 mg/m^2 (n=13), Day 1 Cycle 1, with food): 5630 ng·h/mL
- AUC(0-t) ([2]; human, plasma, oral, 240 mg/m2, AUC0–8h, Powder sprinkled on food, 240 mg/m^2 (n=9), Day 1 Cycle 1): 7300 ng·h/mL
- Cmax ([2]; human, plasma, oral, 240 mg/m2, Cmax, Capsule, 240 mg/m^2 (n=13), Day 1 Cycle 1, with food): 1300 ng/mL
- Cmax ([2]; human, plasma, oral, 240 mg/m2, Cmax, Powder sprinkled on food, 240 mg/m^2 (n=9), Day 1 Cycle 1): 1530 ng/mL
- half-life ([2]; human, plasma, oral, apparent elimination half-life, median, evaluable in 29 of 35 patients, range 1.2 – 18.0 hrs): 162 min
- Tmax ([2]; human, plasma, po): ~2 h
- objective responses ([3]; 32 patients evaluable for response, single agent): not observed; also recorded: no objective responses
- duration of stable disease ([3]; patient with neuroblastoma, 28-day cycles): 8 cycles
- maximum tolerated dose (MTD) ([4]; amorphous form (approximately 170 mg/m^2/dose)): 300 mg
- maximum tolerated dose (MTD) ([4]; crystalline form (approximately 210 mg/m^2/dose)): 360 mg
